Experimental data taken from patent US10562869B2, “Oxadiazole compounds” (REMYND NV, priority 2014, dated 2020).

Each molecule was assayed on M17_3SYN cells (assay: Paraquat-induced cytotoxicity (LDH) in α-synuclein over-expressing M17_3SYN neuroblastoma cells). Conditions: Homo sapiens, Neuroblastoma cell, 48 h, toxicity inhibition (LDH) in M17_3SYN cells challenged with 6 mM paraquat, 2 days; read-out: SYN EC50.
Assay type: cell-based, human
From the text: A α-synuclein expression plasmid was constructed by subcloning the NcoI/XhoI fragment from 212T-SYN(WT) (Griffioen et al., Biochem Biophys Acta (2006) 1762(3):312-318) containing the cDNA of human wild type α-synuclein correspondingly into a standard mammalian expression vector pcDNA3.1 resulting in plasmid pcDNA3.1-SYNwt. Plasmids pcDNA3.1 and pcDNA3.1-SYNwt were transfected into human neuroblastoma cells (BE-M17; ATCC No. CRL-2267™) using lipofectamine reagent and subsequently, independent clonal cell lines with the plasmids stably integrated into the genome were selected by antibiotic resistance selection (Geneticin (G418)), resulting in cell lines M17.pcDNA3 and M17_3SYN. Overexpression of α-synuclein in the M17_3SYN cell line was confirmed by Western blot analysis.
Due to the high levels of α-synuclein, M17_3SYN cells were sensitive to paraquat, a well-known risk factor Parkinson's disease and of synuclein-dependent neuronal degeneration. Cytotoxicity of cells was measured by quantification of lactate dehydrogenase (LDH) levels. In dead cells, LDH leaked out of the cells into the medium due to a loss of plasma-membrane integrity.
[…], primary pre-cultures of M17.pcDNA3 (as possible control) and M17_3SYN cells were prepared, starting from a stock culture, at a density of 20.000-40.000 cells/cm2 in culture medium (Opti-MEM® Reduced Serum Medium with Phenol Red (Invitrogen, Cat. 31985-047) supplemented with 10% FCS, 1 mM sodium pyruvate, 1×NEAA, 500 μg/ml G418 and 0.5×antibiotic/antimycotic (ABAM)). 3 days later these primary pre-cultures were used as a starting point to make secondary pre-cultures at a density of 50.000-100.000 cells/cm^2. At the day of the experiment these secondary precultures were diluted to ˜0.5·10^6 cells/ml in detection medium (Opti-MEM® Reduced-Serum Medium without Phenol Red (Invitrogen, Cat. 11085-021) supplemented with 10% FCS, 1 mM sodium pyruvate, 1×NEAA, 500 μg/ml G418 and 0.5×ABAM) and 60 μL of this suspension was dispensed per well into a 96-well microtiter plate. After 3 hours of incubation at 37° C./5% CO2 an equal volume of detection medium containing a final concentration of 6 mM Paraquat was added and subsequently incubated for 2 days at 37° C./5% CO2. Then LDH activity was determined using the Promega Cytotox 96 Non-Radioactive cytotoxicity assay (Promega, Cat. G1780), according to the manufacturer's instructions. Cytotoxicity was defined as the ratio of LDH relative to the total LDH in the cells and supernatant.
The assay described above using the M17_3SYN cell line allowed screening compounds for their ability to decrease cytotoxicity in PQ-challenged cells. Compounds of the invention were tested for their ability to decrease toxicity at different concentrations, ranging from low non-effective concentrations to high effective concentrations. Afterwards, a dose-dependent inhibition curve was used to calculate the EC50. A compound was considered to be active in this test when it inhibited toxicity by more than 20% relative to untreated M17_3SYN cells at a concentration of 10 μM or lower.
With `COc1ccc(S(=O)(=O)N2CCN(c3nc(C(F)(F)c4ccc(Cl)cc4)no3)CC2)cc1` [Cmpd142, 1-{3-[(4-Chloro-phenyl)-difluoro-methyl]-[1,2,4]oxadiazol-5-yl}-4-(4-methoxy-benzenesulfonyl)-piperazine] the EC50 was 24 nM. In the case of `CCOc1ccc(S(=O)(=O)N2CCN(c3nc(Cc4ccccc4)no3)CC2)cc1` [Cmpd038, 1-(3-Benzyl-[1,2,4]oxadiazol-5-yl)-4-(4-ethoxy-benzenesulfonyl)-piperazine], the EC50 is reported as 13 nM. In the case of `O=S(=O)(c1ccc(OC(F)(F)F)cc1)N1CCN(c2nc(Cc3cccc(F)c3)no2)CC1` [Cmpd087, 1-[3-(3-Fluoro-benzyl)-[1,2,4]oxadiazol-5-yl]-4-(4-trifluoromethoxy-benzenesulfonyl)-piperazine], the EC50 is reported as 497 nM. `CCOc1ccc(S(=O)(=O)N2CCN(c3nc(CC(F)(F)F)no3)CC2)cc1` [Cmpd166, 5-(4-((4-Ethoxyphenyl)sulfonyl)piperazin-1-yl)-3-(2,2,2-trifluoroethyl)-1,2,4-oxadiazole] gave an EC50 of 368 nM. For `CC[C@H](c1ccccc1)c1noc(N2CCN(S(=O)(=O)c3ccc(OC)cc3)CC2)n1` [Cmpd051, 1-(4-Methoxy-benzenesulfonyl)-4-[3-((R)-1-phenyl-propyl)-[1,2,4]oxadiazol-5-yl]-piperazine], the EC50 was 46 nM. `COc1ccc(S(=O)(=O)N2CCN(c3nc(C(C)(C)C)no3)CC2)cc1` [Cmpd209, 3-(Tert-butyl)-5-(4-((4-methoxyphenyl)sulfonyl)piperazin-1-yl)-1,2,4-oxadiazole] gave an EC50 of 296 nM. For `CCOc1ccc(S(=O)(=O)N2CCN(c3nc(C(F)(F)c4ccc(Cl)cc4)no3)CC2)cc1` [Cmpd143, 1-{3-[(4-Chloro-phenyl)-difluoro-methyl]-[1,2,4]oxadiazol-5-yl}-4-(4-ethoxy-benzenesulfonyl)-piperazine], the EC50 was 25 nM. In the case of `CCOc1ccc(S(=O)(=O)N2CCN(c3nc(C(CC)c4ccccc4)no3)CC2)cc1` (stereo not shown) [Cmpd045, 1-(4-Ethoxy-benzenesulfonyl)-4-[3-(1-phenyl-propyl)-[1,2,4]oxadiazol-5-yl]-piperazine], the EC50 is reported as 18 nM. Work on `COc1ccc(S(=O)(=O)N2CCN(c3nc(C4(c5ccc(Cl)cc5)CC4)no3)CC2)cc1` [Cmpd138, 1-{3-[1-(4-Chloro-phenyl)-cyclopropyl]-[1,2,4]oxadiazol-5-yl}-4-(4-methoxy-benzenesulfonyl)-piperazine] yielded an EC50 of 39 nM. `CC(C)Oc1ccc(S(=O)(=O)N2CCN(c3nc(Cc4cccc(F)c4)no3)CC2)cc1` [Cmpd093, 1-[3-(3-Fluoro-benzyl)-[1,2,4]oxadiazol-5-yl]-4-(4-isopropoxy-benzenesulfonyl)-piperazine] was tested, and the EC50 was 326 nM. Work on `COc1ccc(S(=O)(=O)N2CCN(c3nc(COc4ccccc4)no3)CC2)cc1` [Cmpd202, 5-(4-((4-Methoxyphenyl)sulfonyl)piperazin-1-yl)-3-(phenoxymethyl)-1,2,4-oxadiazole] yielded an EC50 of 11 nM. `COc1ccc(S(=O)(=O)N2CCN(c3nc(C(C)(C)c4ccccc4)no3)CC2)cc1` [Cmpd197, 1-(4-Methoxy-benzenesulfonyl)-4-[3-(1-methyl-1-phenyl-ethyl)-[1,2,4]oxadiazol-5-yl]-piperazine] showed an EC50 of 2 nM. With `COc1ccc(S(=O)(=O)N2CCN(c3nc(Cc4ccc(Cl)cc4)no3)CC2)cc1` [Cmpd052, 1-[3-(4-Chloro-benzyl)-[1,2,4]oxadiazol-5-yl]-4-(4-methoxy-benzenesulfonyl)-piperazine] the EC50 was 24 nM. `CCOc1ccc(S(=O)(=O)N2CCN(c3nc(C4(c5ccc(Cl)cc5)CC4)no3)CC2)cc1` [Cmpd139, 1-{3-[1-(4-Chloro-phenyl)-cyclopropyl]-[1,2,4]oxadiazol-5-yl}-4-(4-ethoxy-benzenesulfonyl)-piperazine] gave an EC50 of 356 nM. `CC(C)(c1ccc(F)cc1)c1noc(N2CCN(S(=O)(=O)c3ccc(OC(F)F)cc3)CC2)n1` [Cmpd114, 1-(4-Difluoromethoxy-benzenesulfonyl)-4-{3-[1-(4-fluoro-phenyl)-1-methyl-ethyl]-[1,2,4]oxadiazol-5-yl}-piperazine] showed an EC50 of 17 nM. `COc1ccc(S(=O)(=O)N2CCN(c3nc(C(C)(C)c4cccc(Cl)c4)no3)CC2)cc1` [Cmpd152, 1-{3-[1-(3-Chloro-phenyl)-1-methyl-ethyl]-[1,2,4]oxadiazol-5-yl}-4-(4-methoxy-benzenesulfonyl)-piperazine] showed an EC50 of 1 nM. With `O=S(=O)(c1ccc(OC(F)F)cc1)N1CCN(c2nc(CC3CC3)no2)CC1` [Cmpd160, 3-(Cyclopropylmethyl)-5-(4-((4-(difluoromethoxy)phenyl)sulfonyl)piperazin-1-yl)-1,2,4-oxadiazole] the EC50 was 148 nM. `COc1ccc(S(=O)(=O)N2CCN(c3nc(C(F)(F)c4ccccc4)no3)CC2)cc1` [Cmpd156, 1-[3-(Difluoro-phenyl-methyl)-[1,2,4]oxadiazol-5-yl]-4-(4-methoxy-benzenesulfonyl)-piperazine] gave an EC50 of 5 nM. With `CCOc1ccc(S(=O)(=O)N2CCN(c3nc(Cc4cccc(F)c4)no3)CC2)cc1` [Cmpd091, 1-(4-Ethoxy-benzenesulfonyl)-4-[3-(3-fluoro-benzyl)-[1,2,4]oxadiazol-5-yl]-piperazine] the EC50 was 57 nM. Molecule `O=S(=O)(c1ccc(OC(F)F)cc1)N1CCN(c2nc(Cc3ccccc3)no2)CC1` [Cmpd039, 1-(3-Benzyl-[1,2,4]oxadiazol-5-yl)-4-(4-difluoromethoxy-benzenesulfonyl)-piperazine] has an EC50 of 11 nM. For `CCOc1ccc(S(=O)(=O)N2CCN(c3nc(C(C)(C)c4cccc(Cl)c4)no3)CC2)cc1` [Cmpd153, 1-{3-[1-(3-Chloro-phenyl)-1-methyl-ethyl]-[1,2,4]oxadiazol-5-yl}-4-(4-ethoxy-benzenesulfonyl)-piperazine], the EC50 was 5 nM. With `O=c1[nH]c2cc(S(=O)(=O)N3CCN(c4nc(Cc5cccc(Cl)c5)no4)CC3)ccc2o1` [Cmpd077, 5-{4-[3-(3-Chloro-benzyl)-[1,2,4]oxadiazol-5-yl]-piperazine-1-sulfonyl}-3H-benzooxazol-2-one] the EC50 was 139 nM. For `CCC(c1ccccc1)c1noc(N2CCN(S(=O)(=O)c3ccc(OC(F)F)cc3)CC2)n1` (stereo not shown) [Cmpd046, 1-(4-Difluoromethoxy-benzenesulfonyl)-4-[3-(1-phenyl-propyl)-[1,2,4]oxadiazol-5-yl]-piperazine], the EC50 was 59 nM. With `COc1ccc(S(=O)(=O)N2CCN(c3nc(Cc4ccccc4)no3)CC2)cc1` [Cmpd037, 1-(3-Benzyl-[1,2,4]oxadiazol-5-yl)-4-(4-methoxy-benzenesulfonyl)-piperazine] the EC50 was 3 nM. `CC[C@@H](c1ccccc1)c1noc(N2CCN(S(=O)(=O)c3ccc(OC)cc3)CC2)n1` [Cmpd050, 1-(4-Methoxy-benzenesulfonyl)-4-[3-((S)-1-phenyl-propyl)-[1,2,4]oxadiazol-5-yl]-piperazine] was tested, and the EC50 was 68 nM. With `O=S(=O)(c1ccc(OC(F)F)cc1)N1CCN(c2nc(C(F)(F)c3ccccc3)no2)CC1` [Cmpd158, 1-(4-Difluoromethoxy-benzenesulfonyl)-4-[3-(difluoro-phenyl-methyl)-[1,2,4]oxadiazol-5-yl]-piperazine] the EC50 was 31 nM. With `CCCc1noc(N2CCN(S(=O)(=O)c3ccc(OC)cc3)CC2)n1` [Cmpd207, 5-(4-((4-Methoxyphenyl)sulfonyl)piperazin-1-yl)-3-propyl-1,2,4-oxadiazole] the EC50 was 406 nM.

Same assay, conditions: toxicity inhibition (LDH) in M17_3SYN cells challenged with 6 mM paraquat, 2 days; read-out: SYN EC50
With `CC(C)Oc1ccc(S(=O)(=O)N2CCN(c3nc(Cc4cccc(F)c4)no3)CC2)cc1` [Cmpd096, 3-(3-Fluorobenzyl)-5-(4-((4-isopropoxyphenyl)sulfonyl)piperazin-1-yl)-1,2,4-oxadiazole] the EC50 was 289 nM.
